This is an account of results in patent publication US11161989B2, “Near-infrared absorbing composition, optical structure, and camera module and electronic device comprising the same” (priority 2018, dated 2021).

Data set [1] can be described thus: Solubility of the copper complex in an organic solvent. In kind it is physicochemical. The settings on record: organic solvent THF. As to the method: In Table 1, the “solubility” is evaluated as °, when greater than or equal to 50 wt % of a copper complex based on 100 wt % of an entire composition is dissolved in a corresponding organic solvent, and as X, when less than 50 wt % of a copper complex based on 100 wt % of an entire composition is dissolved in a corresponding organic solvent, and “ANIR” is measured under a THF concentration condition of 10 mg/m L.
In Table 2, “solubility” uses the same reference as Table 1.

A short description of data set [2]: Wavelength vs. absorbance of near-infrared absorbing compositions (UV-Vis spectrophotometer). The format is physicochemical. The settings on record: for A430-565 (average absorbance in a visible light wavelength region) / λNIR (maximum absorption wavelength): 10 mg/mL in THF; for ANIR (maximum absorbance): THF concentration condition of 10 mg/mL; for Absorption area of near-infrared wavelength region: curve integrated from 700 nm to 1100 nm; for Absorption area of near-infrared wavelength region / Cut-off wavelength: composition in THF; for Cut-off wavelength: wavelength of 50% light transmittance after normalizing maximum absorbance to 1.
Source text: In Table 3, the “absorption area of a near-infrared wavelength region” is an area obtained by integrating each curve in a wavelength range from 700 nm to 1100 nm in FIG. 7, and the “cut-off wavelength” is a wavelength where each curve has light transmittance of 50% after normalizing absorbance corresponding to a y-axis of FIG. 7 to have a maximum absorbance of 1 and then, converting the normalized absorbance (An) into light transmittance (T) to satisfy Equation 1. T (%)=10^(2-An).

In the case of `O=C([O][Cu][O]C(=O)C(F)(F)F)C(F)(F)F` [Comparative Example 1, reference compound], the Solubility result in data set [1] is given as “∘”. For the same molecule, in data set [2], the “A430-565 (average absorbance in a visible light wavelength region)” value is recorded as 0.020, the “λNIR (maximum absorption wavelength)” value turned out to be 771 nm, the “ANIR (maximum absorbance)” value is 1.05 and the “Absorption area of near-infrared wavelength region” value (“Absorption area” for short) stood at 328. This molecule also had a Cut-off wavelength in data set [2] of 636 nm.

On to `C=C(C)C(=O)OCCOP(=O)(O)[O][Cu][O]P(=O)(O)OCCOC(=O)C(=C)C` [Comparative Example 2, reference compound], for which the Solubility entry in data set [1] was “∘”. For the same molecule, in data set [2], the “A430-565 (average absorbance in a visible light wavelength region)” value is on record as 0.001, the “λNIR (maximum absorption wavelength)” value came out at 826 nm, the “ANIR (maximum absorbance)” value is given as 0.42 and the “Absorption area” value came out at 144. The same molecule displayed a Cut-off wavelength in data set [2] of 740 nm.

With `CCOP(=O)(O)[O][Cu][O]C(=O)C(F)(F)F` [Example 2], the Solubility result in data set [1] was “∘”. Besides, in data set [2], the “A430-565 (average absorbance in a visible light wavelength region)” value worked out at 0.013, the “λNIR (maximum absorption wavelength)” value is 794 nm and the “ANIR (maximum absorbance)” value turned out to be 1.16.

For `CC(C)OP(=O)(O)[O][Cu][O]C(=O)C(F)(F)F` [Example 3], in data set [1], the Solubility entry is listed as “∘”. Moreover, in data set [2], the “A430-565 (average absorbance in a visible light wavelength region)” value was 0.008, the “λNIR (maximum absorption wavelength)” value is 794 nm and the “ANIR (maximum absorbance)” value came out at 1.04.

`O=C([O][Cu][O]P(=O)(Oc1ccccc1)Oc1ccccc1)C(F)(F)F` [Example 4]: the Solubility entry in data set [1] is listed as “∘”. Also, in data set [2], the “A430-565 (average absorbance in a visible light wavelength region)” value is reported as 0.005, the “λNIR (maximum absorption wavelength)” value is listed as 814 nm and the “ANIR (maximum absorbance)” value was 0.85.

Consider `C=C(C)C(=O)OCCOP(=O)(O)[O][Cu][O]C(=O)C(F)(F)F` [Example 5], for which, in data set [1], the Solubility entry was “∘”. Besides, in data set [2], the “A430-565 (average absorbance in a visible light wavelength region)” value was 0.010, the “λNIR (maximum absorption wavelength)” value is reported as 814 nm and the “ANIR (maximum absorbance)” value is 0.66.

Take `Cc1ccc(S(=O)(=O)[O][Cu][O]C(=O)C(F)(F)F)cc1` [Example 6]: the Solubility result in data set [1] is “∘”. For the same molecule, in data set [2], the “A430-565 (average absorbance in a visible light wavelength region)” value is recorded as 0.006, the “λNIR (maximum absorption wavelength)” value worked out at 825 nm, the “ANIR (maximum absorbance)” value is on record as 0.70 and the “Absorption area” value is on record as 234. The same molecule came in with a Cut-off wavelength in data set [2] of 676 nm.
